Reference: patent publication US9238053B2, “Methods for treatment of pain” (Nocicepta LLC, priority 2009, dated 2016)

Columns and labels:
[1] = target: T1, NOP receptor (Rattus norvegicus, UniProt P35370); test: Effect of nociceptin antagonist on intranasal nociceptin induced reduction of thermal nociception; type: in vivo; conditions: subcutaneous 10.0 mg/kg, 45 minutes before i.n. nociceptin (5.0 mg/kg); rat cheek and hindpaw
T1 construct: from tissue; host or cells: whole living male Sprague-Dawley rats (in vivo)
T1 sequence (P35370 whole entry): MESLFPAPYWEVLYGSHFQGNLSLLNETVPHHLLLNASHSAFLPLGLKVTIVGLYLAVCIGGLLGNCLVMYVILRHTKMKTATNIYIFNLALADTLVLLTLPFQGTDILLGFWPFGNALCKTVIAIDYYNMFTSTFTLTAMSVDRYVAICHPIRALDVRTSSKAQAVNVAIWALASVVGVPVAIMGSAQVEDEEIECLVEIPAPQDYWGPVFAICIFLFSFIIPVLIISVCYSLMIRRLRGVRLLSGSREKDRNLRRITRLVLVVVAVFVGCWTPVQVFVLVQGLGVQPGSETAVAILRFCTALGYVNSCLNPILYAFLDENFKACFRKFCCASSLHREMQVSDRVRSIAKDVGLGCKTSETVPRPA
Excerpt: This experiment was to verify the binding site of nociceptin induced analgesia in a thermal nociceptive rodent model.
(A) Groups of six rats per test run were lightly anesthetized with urethane (1.0 g/kg, i.p., titrated to minimal activity in the absence of a stimulus) (Sherman and Loomis et al, 1996). The left and right cheeks and right hindpaw were blackened with India ink to allow even heat distribution.
(B) Each 200-300 g male Sprague-Dawley rat was subjected to varying heat intensities on the left and right check and right hindpaw for selective testing of A-delta vs. C fiber nociception (Yeomans et al., 1996). • For C-fiber testing, the heat intensity was adjusted by altering the supply voltage of a focused projector lamp until a withdrawal latency between 9-13 seconds was observed. […] To reduce the potential for tissue damage, a cut-off latency of 20 seconds was used after which the stimulus was terminated. […]
(E) Withdrawal latencies were measured in response to radiant heat stimulation of the left and right cheeks, followed by similar measurements of response latencies for each hindpaw. […]
The efficacy of nasal application of nociceptin was measured in rats pretreated with subcutaneous nociceptin antagonist in comparison to rats pre-treated with subcutaneous saline vehicle. […]

[2] = system: male rats; test: Facial formalin model of tonic pain (formalin injection into the lip, facial wiping/grooming); type: in vivo; conditions: rat lip formalin
Description: Time spent grooming was determined over 45 minutes and grouped in 3 minute bins. […] The area under the curve (AUC) for each compound or vehicle was approximated using the trapezodial method. % Reduction=[(Vehicle AUC−Treatment AUC)/Vehicle AUC)]×100%. Data are presented as the mean±1 SEM. (n=6-8 Rats/group).
The paw formalin model is widely used to assess tonic pain efficacy of putative and known analgesic treatments.

[3] = system: rats; conditions: intraperitoneal 3.0 mg/kg or intranasal 4.0 mg/kg, regardless of route
Description: Compounds were administered 20-30 minutes prior to the charcoal meal (2 mL/rat). Rats were sacrificed 30 minutes after receiving the meal. % transit was calculated as the ratio of the travel distance of the charcoal marker divided by the full length of the small intestine multiplied by 100%. Data are presented as the mean±1 SEM. (n=8 Rats/group).
In order to determine whether intransasal N/OFQ, which has a similar analgesic efficacy to that of strong opiates, would also produce constipation, the effects of intranasal N/OFQ on gastric transit time was assessed. […] Stomach and small intestine were immediately removed and both the total length of small intestine and the distance traveled by the charcoal were recorded. Percent transit was calculated as the ratio of charcoal distance divided by total small intestine length multiplied by 100%.

Cc1cccc2c1CC[C@@H](CN1CCC(c3c(Cl)cccc3Cl)CC1)C[C@H]2O [SB-612111, (−)-cis-1-methyl-7-[[4-(2,6-dichlorophenyl)piperidin-1-yl]-methyl]-6,7,8,9-tetrahydro-5H-benzocyclohepten-5-ol]
effect on analgesic activity of intranasal nociceptin [1]: apparent block of the analgesic activity of nociceptin

CNS(=O)(=O)Cc1ccc2[nH]cc(CCN(C)C)c2c1 [sumatriptan]
inhibition at 42 mg/kg ([2]; ip, 42 mg/kg i.p., read-out: inhibition of facial wiping behavior): 43.8%

CN1CC[C@]23c4c5ccc(O)c4O[C@H]2[C@@H](O)C=C[C@H]3[C@H]1C5 [morphine]
effect on intestinal transit (percent transit) [3]: considerable slowing of transit
maximal inhibition of facial wiping behavior ([2]; 3 mg/kg i.n.): 80.2%
